{"source": "patent US8124361B2", "about": "“Methods of screening for sweet taste modulators” (Givaudan SA, priority 2006, dated 2012)", "key": {"[1]": {"test_system": "sweet sensitive panelists", "assay": "Ranking test of sweetness isointensity (R-index), sensory panel", "type": "in vivo, human", "conditions": "for sweetness equivalent to sucrose (isointensity): by interpolation; for sample sweetness (0.5% sucrose) / sample sweetness (p-ethoxybenzaldehyde, 75 ppm): nose clips", "description": "(§1) The sensory evaluation was conducted using a ranking method. Samples at ambient temperature were randomly presented in 15 ml blind aliquots (unidentifiable by panelists). Panels consisted of 10 sweet sensitive subjects and samples were presented in 3 replications over 1 session. After tasting each sample, the mouth was rinsed thoroughly with water at ambient temperature prior to tasting the next sample. […] They were asked to rank the samples from low to high with respect to perceived sweet taste.\nas §1, with “taste. […] From ranking-style sensory tests, a matrix of responses (see table X below) is constructed such that each cell contains the number of times a given sample was ranked at a particular location.” for “taste.”\nEssentially, the R-index is a measure of difference between two samples. The R-index has a chance level of detection of 50%. […] The critical value is the statistically relevant value that the derived R-index must deviate from (i.e greater or less than) in order to be considered significant."}, "[2]": {"test_system": "sweet sensitive panelists", "assay": "Paired comparison of sweetness versus sucrose, sensory panel", "type": "in vivo, human"}, "[3]": {"biological_target": "T1, transmembrane domains of TAS1R (Homo sapiens, UniProt Q7RTX0+Q8TE23, C757R)", "T1 sequence (Q8TE23 20-839)": "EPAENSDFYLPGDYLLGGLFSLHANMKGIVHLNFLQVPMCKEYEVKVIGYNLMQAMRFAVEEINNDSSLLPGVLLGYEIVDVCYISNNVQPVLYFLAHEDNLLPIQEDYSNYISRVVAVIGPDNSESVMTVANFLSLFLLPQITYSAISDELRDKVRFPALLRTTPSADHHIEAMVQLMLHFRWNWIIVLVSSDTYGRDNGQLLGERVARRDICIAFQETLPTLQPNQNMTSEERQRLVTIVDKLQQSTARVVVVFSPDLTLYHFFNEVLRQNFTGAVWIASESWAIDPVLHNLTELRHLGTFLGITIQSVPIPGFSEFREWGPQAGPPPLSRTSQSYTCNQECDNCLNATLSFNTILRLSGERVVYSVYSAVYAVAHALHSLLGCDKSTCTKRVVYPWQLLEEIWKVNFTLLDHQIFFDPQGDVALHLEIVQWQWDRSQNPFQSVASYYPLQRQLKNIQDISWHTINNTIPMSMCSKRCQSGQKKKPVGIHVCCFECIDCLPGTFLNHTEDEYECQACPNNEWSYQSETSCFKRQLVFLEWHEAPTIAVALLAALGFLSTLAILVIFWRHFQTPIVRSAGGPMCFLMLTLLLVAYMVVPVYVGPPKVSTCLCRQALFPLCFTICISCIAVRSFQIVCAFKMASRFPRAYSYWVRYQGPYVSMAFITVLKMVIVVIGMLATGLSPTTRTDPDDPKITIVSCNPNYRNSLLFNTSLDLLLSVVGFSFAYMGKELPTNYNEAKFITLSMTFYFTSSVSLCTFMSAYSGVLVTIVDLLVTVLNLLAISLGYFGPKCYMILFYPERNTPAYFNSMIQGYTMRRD", "T1 sequence (Q7RTX0 21-852 C757R)": "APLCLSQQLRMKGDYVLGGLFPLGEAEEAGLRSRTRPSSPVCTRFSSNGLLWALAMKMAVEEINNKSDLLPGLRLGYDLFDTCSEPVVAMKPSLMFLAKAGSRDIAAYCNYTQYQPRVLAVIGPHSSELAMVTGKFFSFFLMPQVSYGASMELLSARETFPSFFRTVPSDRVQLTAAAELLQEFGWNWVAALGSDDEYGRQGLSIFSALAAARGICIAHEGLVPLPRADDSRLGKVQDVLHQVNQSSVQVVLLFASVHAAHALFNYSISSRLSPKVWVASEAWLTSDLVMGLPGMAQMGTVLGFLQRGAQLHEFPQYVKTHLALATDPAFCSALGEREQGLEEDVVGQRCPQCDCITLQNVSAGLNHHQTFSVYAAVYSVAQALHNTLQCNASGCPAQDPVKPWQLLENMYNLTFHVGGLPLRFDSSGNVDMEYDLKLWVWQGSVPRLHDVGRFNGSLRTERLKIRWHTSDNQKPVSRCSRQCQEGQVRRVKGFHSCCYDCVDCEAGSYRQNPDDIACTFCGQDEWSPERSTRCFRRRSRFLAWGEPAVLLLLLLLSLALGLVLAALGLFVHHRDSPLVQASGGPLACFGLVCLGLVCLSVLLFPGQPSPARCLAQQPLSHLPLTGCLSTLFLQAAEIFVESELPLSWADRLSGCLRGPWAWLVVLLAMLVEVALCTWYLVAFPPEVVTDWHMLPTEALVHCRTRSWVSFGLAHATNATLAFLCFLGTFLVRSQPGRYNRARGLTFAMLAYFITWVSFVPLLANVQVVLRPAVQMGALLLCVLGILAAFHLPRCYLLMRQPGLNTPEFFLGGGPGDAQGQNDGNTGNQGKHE", "assay": "Identification of candidate sweetness enhancers that bind to the transmembrane domains", "type": "binding", "conditions": "identified by the applicants as candidate sweetness enhancers"}}}
{"smiles": "C[C@@H]1O[C@@H](O[C@H]2[C@H](Oc3cc(O)c(C(=O)CCc4ccc(O)cc4)c(O)c3)O[C@H](CO)[C@@H](O)[C@@H]2O)[C@H](O)[C@H](O)[C@H]1O", "note": "[NarDHC, naringin dihydrochalcone]", "values": [{"measurement": "sweetness equivalent to sucrose (isointensity)", "setting": "[1]; 60 ppm NarDHC in water", "result": "about 1.25 % sucrose"}, {"measurement": "Result of comparison", "setting": "[2]; 45 ppm NarDHC in water vs 0% sucrose", "result": "weakly sweeter"}, {"measurement": "Result of comparison", "setting": "[2]; 45 ppm NarDHC in water vs 0.5% sucrose", "result": "isosweet"}, {"measurement": "Result of comparison", "setting": "[2]; 45 ppm NarDHC in water vs 1% sucrose", "result": "less sweet"}, {"measurement": "Result of comparison", "setting": "[2]; 50 ppm NarDHC in water vs 0.5% sucrose", "result": "notably sweeter"}, {"measurement": "Result of comparison", "setting": "[2]; 50 ppm NarDHC in water vs 1% sucrose", "result": "less sweet"}, {"measurement": "Result of comparison", "setting": "[2]; 55 ppm NarDHC in water vs 0.5% sucrose", "result": "notably sweeter"}, {"measurement": "Result of comparison", "setting": "[2]; 55 ppm NarDHC in water vs 1% sucrose", "result": "isosweet"}, {"measurement": "Result of comparison", "setting": "[2]; 60 ppm NarDHC in water vs 1% sucrose", "result": "notably sweeter"}, {"measurement": "Result of comparison", "setting": "[2]; 60 ppm NarDHC in water vs 1.5% sucrose", "result": "significantly less sweet"}, {"measurement": "binding to the transmembrane domains of TAS1R", "setting": "[3]", "result": "bind to the transmembrane domains of TAS1R"}]}
{"smiles": "C[C@H](CC[C@@H](O[C@@H]1O[C@H](CO[C@@H]2O[C@H](CO)[C@@H](O)[C@H](O)[C@H]2O)[C@@H](O)[C@H](O)[C@H]1O[C@@H]1O[C@H](CO)[C@@H](O)[C@H](O)[C@H]1O)C(C)(C)O)[C@H]1CC[C@@]2(C)[C@@H]3CC=C4[C@@H](CC[C@H](O[C@@H]5O[C@H](CO[C@@H]6O[C@H](CO)[C@@H](O)[C@H](O)[C@H]6O)[C@@H](O)[C@H](O)[C@H]5O)C4(C)C)[C@]3(C)[C@H](O)C[C@]12C", "note": "[mogroside V]", "values": [{"measurement": "binding to the transmembrane domains of TAS1R", "setting": "[3]", "result": "bind to the transmembrane domains of TAS1R"}]}
{"smiles": "C=C1C[C@@]23CC[C@H]4[C@@](C)(CCC[C@@]4(C)C(=O)O[C@@H]4O[C@H](CO)[C@@H](O)[C@H](O)[C@H]4O)[C@@H]2CC[C@]1(O[C@@H]1O[C@H](CO)[C@@H](O)[C@H](O[C@@H]2O[C@H](CO)[C@@H](O)[C@H](O)[C@H]2O)[C@H]1O[C@@H]1O[C@H](CO)[C@@H](O)[C@H](O)[C@H]1O)C3", "note": "[rebaudioside A]", "values": [{"measurement": "binding to the transmembrane domains of TAS1R", "setting": "[3]", "result": "bind to the transmembrane domains of TAS1R"}]}
{"smiles": "C=C1C[C@@]23CC[C@H]4[C@@](C)(CCC[C@@]4(C)C(=O)O[C@@H]4O[C@H](CO)[C@@H](O)[C@H](O)[C@H]4O)[C@@H]2CC[C@]1(O[C@@H]1O[C@H](CO)[C@@H](O)[C@H](O)[C@H]1O[C@@H]1O[C@H](CO)[C@@H](O)[C@H](O)[C@H]1O)C3", "note": "[stevioside]", "values": [{"measurement": "binding to the transmembrane domains of TAS1R", "setting": "[3]", "result": "bind to the transmembrane domains of TAS1R"}]}
{"smiles": "C=C1C[C@@]23CC[C@H]4[C@@](C)(CCC[C@@]4(C)C(=O)O[C@@H]4O[C@H](CO)[C@@H](O)[C@H](O)[C@H]4O)[C@@H]2CC[C@]1(O[C@@H]1O[C@H](CO)[C@@H](O)[C@H](O)[C@H]1O)C3", "note": "[rubusoside]", "values": [{"measurement": "binding to the transmembrane domains of TAS1R", "setting": "[3]", "result": "bind to the transmembrane domains of TAS1R"}]}
{"smiles": "CCOc1ccc(C=O)cc1", "note": "[p-ethoxybenzaldehyde]", "values": [{"measurement": "sample sweetness (0.5% sucrose)", "setting": "[1]; 0.5% sucrose sample ranked against 100 ppm p-ethoxybenzaldehyde in water", "result": "isosweet"}, {"measurement": "sample sweetness (0.5% sucrose)", "setting": "[1]; 0.5% sucrose sample ranked against 150 ppm p-ethoxybenzaldehyde in water", "result": "less sweet"}, {"measurement": "sweetness isointensity to sucrose", "setting": "[1]; 7% sucrose and 75 ppm p-ethoxybenzaldehyde", "result": 8, "unit": "% sucrose"}, {"measurement": "sample sweetness (p-ethoxybenzaldehyde, 75 ppm)", "setting": "[1]; 75 ppm in water vs 0.5% sucrose", "result": "less sweet"}, {"measurement": "sample sweetness (p-ethoxybenzaldehyde, 75 ppm)", "setting": "[1]; 75 ppm in water vs 1% sucrose", "result": "less sweet"}, {"measurement": "p-ethoxybenzaldehyde sample sweetness", "setting": "[1]; 75 ppm p-ethoxybenzaldehyde in 7% sucrose vs 7% sucrose", "result": "sweeter"}, {"measurement": "p-ethoxybenzaldehyde sample sweetness", "setting": "[1]; 75 ppm p-ethoxybenzaldehyde in 7% sucrose vs 8% sucrose", "result": "isosweet"}, {"measurement": "p-ethoxybenzaldehyde sample sweetness", "setting": "[1]; 75 ppm p-ethoxybenzaldehyde in 7% sucrose vs 9% sucrose", "result": "less sweet"}, {"measurement": "p-ethoxybenzaldehyde sample sweetness", "setting": "[1]; 75 ppm p-ethoxybenzaldehyde in 7% sucrose vs 10% sucrose", "result": "less sweet"}, {"measurement": "p-ethoxybenzaldehyde sample sweetness", "setting": "[1]; 75 ppm p-ethoxybenzaldehyde in 7% sucrose vs 11% sucrose", "result": "less sweet"}, {"measurement": "sweetness equivalent to sucrose (isointensity)", "setting": "[1]; 75 ppm p-ethoxybenzaldehyde in water, below the detection threshold for sweet", "result": 0.25, "unit": "% sucrose"}, {"measurement": "sample sweetness (p-ethoxybenzaldehyde, 100 ppm)", "setting": "[1]; 100 ppm in water vs 150 ppm cyclamate", "result": "isosweet"}, {"measurement": "sample sweetness (p-ethoxybenzaldehyde, 100 ppm)", "setting": "[1]; 100 ppm in water vs 200 ppm cyclamate", "result": "less sweet"}, {"measurement": "sample sweetness (p-ethoxybenzaldehyde, 100 ppm)", "setting": "[1]; 100 ppm in water vs 250 ppm cyclamate", "result": "less sweet"}, {"measurement": "cyclamate equivalent in sweetness added", "setting": "[1]; 100 ppm p-ethoxybenzaldehyde added to 1700 ppm cyclamate", "result": 400, "unit": "ppm cyclamate"}, {"measurement": "p-ethoxybenzaldehyde sample sweetness", "setting": "[1]; 100 ppm p-ethoxybenzaldehyde in 1700 ppm cyclamate vs 1700 ppm cyclamate", "result": "sweeter"}, {"measurement": "p-ethoxybenzaldehyde sample sweetness", "setting": "[1]; 100 ppm p-ethoxybenzaldehyde in 1700 ppm cyclamate vs 1900 ppm cyclamate", "result": "sweeter"}, {"measurement": "p-ethoxybenzaldehyde sample sweetness", "setting": "[1]; 100 ppm p-ethoxybenzaldehyde in 1700 ppm cyclamate vs 2100 ppm cyclamate", "result": "isosweet"}, {"measurement": "p-ethoxybenzaldehyde sample sweetness", "setting": "[1]; 100 ppm p-ethoxybenzaldehyde in 1700 ppm cyclamate vs 2300 ppm cyclamate", "result": "less sweet"}, {"measurement": "p-ethoxybenzaldehyde sample sweetness", "setting": "[1]; 100 ppm p-ethoxybenzaldehyde in 1700 ppm cyclamate vs 2500 ppm cyclamate", "result": "less sweet"}, {"measurement": "sweetness A versus B", "setting": "[1]; 600 ppm (A) vs 700 ppm (B) p-ethoxybenzaldehyde in water", "result": "less sweet than"}, {"measurement": "sweetness A versus B", "setting": "[1]; 700 ppm (A) vs 800 ppm (B) p-ethoxybenzaldehyde in water", "result": "less sweet than"}, {"measurement": "sweetness A versus B", "setting": "[1]; 800 ppm (A) vs 900 ppm (B) p-ethoxybenzaldehyde in water", "result": "less sweet than"}, {"measurement": "sweetness A versus B", "setting": "[1]; 900 ppm (A) vs 1000 ppm (B) p-ethoxybenzaldehyde in water", "result": "less sweet than"}, {"measurement": "cyclamate isointensity", "setting": "[1]; 1700 ppm cyclamate+100 ppm p-ethoxybenzaldehyde", "result": 2100, "unit": "ppm cyclamate"}]}
